Activity calls are given as the source filed them. The rule behind the calls is not given here.
Legend:
[1] = molecular target: Beta-secretase 1 (Homo sapiens, UniProt P56817); experiment: Inhibition of human recombinant BACE1 by fluorescence resonance energy transfer (FRET) assay
[2] = molecular target: T1, Cholinesterase (Homo sapiens, UniProt P06276); experiment: Inhibition of BChE (unknown origin) using butyrylthiocholine as substrate assessed as substrate hydrolysis by spectrophotometric/Ellman method
[3] = molecular target: T2, Acetylcholinesterase (Homo sapiens, UniProt P22303); experiment: Inhibition of AChE (unknown origin) using acetylthiocholine as substrate assessed as substrate hydrolysis by spectrophotometric/Ellman method
[4] = molecular target: T1, Cholinesterase; experiment: Mixed type inhibition of BChE (unknown origin) by Lineweaver-Burk plot analysis
[5] = molecular target: T1, Cholinesterase; experiment: Inhibition of BChE (unknown origin) by Dixon plot analysis
[6] = molecular target: T2, Acetylcholinesterase; experiment: Inhibition of AChE (unknown origin) by Dixon plot analysis
[7] = molecular target: T2, Acetylcholinesterase; experiment: Mixed type inhibition of AChE (unknown origin) by Lineweaver-Burk plot analysis

Beta-secretase 1, sequence (P56817 whole entry): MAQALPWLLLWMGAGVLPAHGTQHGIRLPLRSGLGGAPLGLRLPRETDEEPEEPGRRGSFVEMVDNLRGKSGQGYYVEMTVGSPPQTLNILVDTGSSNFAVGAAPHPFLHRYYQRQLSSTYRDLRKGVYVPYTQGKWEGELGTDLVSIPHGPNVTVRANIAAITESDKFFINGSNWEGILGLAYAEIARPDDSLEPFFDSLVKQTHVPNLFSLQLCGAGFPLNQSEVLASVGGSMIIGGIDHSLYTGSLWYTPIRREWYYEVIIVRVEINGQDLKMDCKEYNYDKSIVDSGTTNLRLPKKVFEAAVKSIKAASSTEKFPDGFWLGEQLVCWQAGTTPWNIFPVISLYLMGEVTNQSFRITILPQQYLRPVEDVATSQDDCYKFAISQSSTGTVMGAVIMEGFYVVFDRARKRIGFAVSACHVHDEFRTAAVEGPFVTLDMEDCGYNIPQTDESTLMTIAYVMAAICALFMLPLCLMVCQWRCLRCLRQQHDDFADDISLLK
T2 sequence (P22303 whole entry): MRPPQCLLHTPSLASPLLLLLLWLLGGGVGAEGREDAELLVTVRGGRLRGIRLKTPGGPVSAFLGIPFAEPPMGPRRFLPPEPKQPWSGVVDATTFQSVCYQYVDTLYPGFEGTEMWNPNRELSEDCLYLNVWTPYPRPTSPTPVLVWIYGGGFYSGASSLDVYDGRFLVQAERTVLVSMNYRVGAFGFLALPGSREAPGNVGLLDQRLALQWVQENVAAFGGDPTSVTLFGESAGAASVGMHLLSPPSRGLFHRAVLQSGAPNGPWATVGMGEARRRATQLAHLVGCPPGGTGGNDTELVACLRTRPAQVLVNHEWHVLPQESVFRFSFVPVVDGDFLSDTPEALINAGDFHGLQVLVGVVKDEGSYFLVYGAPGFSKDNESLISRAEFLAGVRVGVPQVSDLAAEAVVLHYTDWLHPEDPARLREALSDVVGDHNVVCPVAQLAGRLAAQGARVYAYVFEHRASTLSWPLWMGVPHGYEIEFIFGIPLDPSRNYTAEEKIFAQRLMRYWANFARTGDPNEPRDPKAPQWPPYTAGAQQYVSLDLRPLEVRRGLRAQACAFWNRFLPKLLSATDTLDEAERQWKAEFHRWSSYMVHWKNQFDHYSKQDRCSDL
T1 sequence (P06276 whole entry): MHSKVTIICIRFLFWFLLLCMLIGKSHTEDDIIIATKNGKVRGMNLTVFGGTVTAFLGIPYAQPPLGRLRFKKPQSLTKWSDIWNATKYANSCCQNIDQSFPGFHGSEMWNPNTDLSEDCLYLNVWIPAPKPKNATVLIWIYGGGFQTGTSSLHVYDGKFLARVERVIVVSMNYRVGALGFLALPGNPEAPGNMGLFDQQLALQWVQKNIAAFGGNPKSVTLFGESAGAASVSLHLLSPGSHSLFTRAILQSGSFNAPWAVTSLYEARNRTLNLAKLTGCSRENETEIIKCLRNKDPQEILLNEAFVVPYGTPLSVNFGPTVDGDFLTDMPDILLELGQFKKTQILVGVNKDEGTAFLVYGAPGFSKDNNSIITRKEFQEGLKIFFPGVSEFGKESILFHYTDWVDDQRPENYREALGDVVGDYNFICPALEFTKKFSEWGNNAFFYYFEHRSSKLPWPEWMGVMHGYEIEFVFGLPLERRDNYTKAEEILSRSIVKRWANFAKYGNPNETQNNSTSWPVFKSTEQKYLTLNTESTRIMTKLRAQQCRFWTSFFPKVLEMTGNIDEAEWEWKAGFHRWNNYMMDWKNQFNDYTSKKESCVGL

**Q.** With CC1(C)C(=O)CC[C@@]2(C)[C@H]1CC[C@@]1(C)CC3=CC(=O)[C@H]4C(C)(C)[C@H](O)CC[C@]4(C)[C@H]3CC[C@@H]12 as the compound, how does the IC50 [1] read?
**A.** The IC50 was 0.23 µM.

**Q.** And the IC50 [2]?
**A.** The IC50 was > 30 µM.

**Q.** What about the IC50 [3] of the same compound?
**A.** The IC50 was 10.7 µM.

**Q.** And the inhibition [4]?
**A.** The inhibition was “Active”.

**Q.** What about the Ki [5] of the same compound?
**A.** The Ki was 4.78 µM.

**Q.** Which results are given for CCCC[C@@H](O)/C=C/C=C/C(=O)O?
**A.** IC50 [1]: 6.91 µM; IC50 [2]: > 30 µM; Ki [6]: 1170 nM; IC50 [3]: 0.22 µM; inhibition [7]: Active

**Q.** Which results are given for CC1(C)[C@@H](O)CC[C@@]2(C)[C@H]1CC[C@@]1(C)C[C@@]3(O)CC[C@H]4C(C)(C)[C@@H](O)CC[C@]4(C)[C@H]3CC[C@@H]12?
**A.** IC50 [1]: > 10 µM; IC50 [2]: > 30 µM; IC50 [3]: > 30 µM

**Q.** For C[C@@]12CC[C@@H]3[C@](C)(CC[C@H](O)[C@]3(C)C(=O)O)[C@H]1CC[C@H]1C(=CC(=O)[C@@H]3[C@]1(C)CC[C@@H](O)[C@]3(C)CO)C2, which IC50 [1] is on record?
**A.** Its IC50 is > 10 µM.

**Q.** What about the IC50 [2] of the same compound?
**A.** The IC50 was > 30 µM.

**Q.** And the IC50 [3]?
**A.** The IC50 was > 30 µM.

**Q.** What does the source list for CC1(C)[C@H](O)CC[C@@]2(C)[C@H]1CC[C@@]1(C)CC3=CC[C@H]4C(C)(C)[C@@H](O)CC[C@]4(C)[C@H]3CC[C@@H]12?
**A.** IC50 [1]: > 10 µM; IC50 [2]: 1.37 µM; IC50 [3]: > 30 µM; inhibition [4]: Active; Ki [5]: 4.88 µM

**Q.** How did the IC50 [1] turn out when CC1(C)[C@H](O)CC[C@@]2(C)[C@H]1CC[C@@]1(C)CC3=CC[C@H]4C(C)(C)[C@H](O)CC[C@]4(C)[C@H]3CC[C@@H]12 was run?
**A.** Its IC50 is > 10 µM.

**Q.** What about the IC50 [2] of the same compound?
**A.** The IC50 was > 30 µM.

**Q.** What about the IC50 [3] of the same compound?
**A.** Its IC50 is > 30 µM.

**Q.** Which IC50 [1] does the source give for C[C@@]12CC[C@@H]3[C@](C)(CC[C@H](OC(=O)/C=C/c4ccc(O)cc4)[C@]3(C)C(=O)O)[C@H]1CC[C@H]1C(=CC[C@@H]3[C@]1(C)CC[C@@H](O)[C@]3(C)CO)C2 here?
**A.** The IC50 was 1.07 µM.

**Q.** What about the IC50 [2] of the same compound?
**A.** The IC50 was > 30 µM.

**Q.** What about the IC50 [3] of the same compound?
**A.** The IC50 was > 30 µM.

**Q.** How did the IC50 [1] turn out when COC(=O)[C@]1(C)[C@@H]2CC[C@@]3(C)CC4=CC(=O)[C@@H]5[C@](C)(CC[C@@H](O)[C@]5(C)CO)[C@H]4CC[C@@H]3[C@@]2(C)CC[C@@H]1O [LYCERNUIC KETONE A] was run?
**A.** The IC50 was > 10 µM.

**Q.** And the IC50 [2]?
**A.** The IC50 was > 30 µM.

**Q.** And the IC50 [3]?
**A.** Its IC50 is > 30 µM.

**Q.** How did the IC50 [1] turn out when CC(=O)O[C@H]1CC[C@@]2(C)[C@@H](CC[C@@]3(C)C[C@@]4(O)CC[C@H]5C(C)(C)[C@@H](OC(C)=O)CC[C@]5(C)[C@H]4CC[C@@H]32)C1(C)C was run?
**A.** The IC50 was > 10 µM.

**Q.** And the IC50 [2]?
**A.** The IC50 was > 30 µM.

**Q.** What about the Ki [6] of the same compound?
**A.** The Ki was 2490 nM.

**Q.** What about the IC50 [3] of the same compound?
**A.** The IC50 was 0.91 µM.

**Q.** And the inhibition [7]?
**A.** The inhibition was “Active”.

**Q.** With CC1(C)[C@H](O)CC[C@]2(C)[C@H]3CC[C@H]4[C@@](C)(CC[C@@H]5[C@]4(C)CC[C@@H](O)[C@]5(C)C(=O)O)CC3=CC(=O)[C@@H]12 as the compound, how does the IC50 [1] read?
**A.** Its IC50 is > 10 µM.

**Q.** What about the IC50 [2] of the same compound?
**A.** Its IC50 is > 30 µM.

**Q.** And the IC50 [3]?
**A.** The IC50 was > 30 µM.

**Q.** C[C@@]12CC[C@@H]3[C@](C)(CC[C@H](OC(=O)c4ccc(O)cc4)[C@]3(C)C(=O)O)[C@H]1CC[C@@H]1[C@@]3(C)CC[C@@H](O)[C@](C)(CO)[C@@H]3C[C@H](O)[C@@]1(O)C2 was tested. Which IC50 [1] did it give?
**A.** The IC50 was 0.31 µM.

**Q.** What about the IC50 [2] of the same compound?
**A.** Its IC50 is > 30 µM.

**Q.** What about the IC50 [3] of the same compound?
**A.** Its IC50 is > 30 µM.

**Q.** Which IC50 [1] does the source give for C[C@@]12CC[C@@H]3[C@](C)(CC[C@H](OC(=O)CCc4ccc(O)cc4)[C@]3(C)C(=O)O)[C@H]1CC[C@H]1C(=CC[C@@H]3[C@]1(C)CC[C@@H](O)[C@]3(C)CO)C2 here?
**A.** Its IC50 is > 10 µM.

**Q.** What about the IC50 [2] of the same compound?
**A.** The IC50 was 0.42 µM.

**Q.** What about the Ki [6] of the same compound?
**A.** The Ki was 7970 nM.

**Q.** And the IC50 [3]?
**A.** Its IC50 is 1.69 µM.

**Q.** What about the Ki [5] of the same compound?
**A.** Its Ki is 0.99 µM.

**Q.** And the inhibition [7]?
**A.** Its inhibition is “Active”.

**Q.** Which results are given for COc1ccc(C(=O)O[C@H]2CC[C@@]3(C)[C@@H](CC[C@@]4(C)C[C@@]5(O)[C@H](CC[C@@H]43)[C@@]3(C)CC[C@@H](O)C(C)(C)[C@@H]3C[C@@H]5O)[C@@]2(C)C(=O)O)cc1O?
**A.** IC50 [1]: 0.98 µM; IC50 [2]: > 30 µM; IC50 [3]: 9.98 µM

Reference: ChEMBL document CHEMBL3585347, “Isolation of cholinesterase and β-secretase 1 inhibiting compounds from Lycopodiella cernua” (Bioorg Med Chem, 2015)
